Results reported in PMC3387161, “Small Molecules Targeted to a Non-Catalytic “RVxF” Binding Site of Protein Phosphatase-1 Inhibit HIV-1” (PLoS ONE, 2012).
Several values for one entry are separate records, joined by “and”; a condition that tells them apart may be missing. Equal entries are not always repeated.

Key:
[1] = tested on: HIV-1 NL4-3; test: HIV-1 replication in MT4 cells, reverse transcriptase activity; conditions: HIV-1 NL4-3, tested at 2, 10, 25 µM, RT activity over 8 days
[2] = tested on: 293T cells; test: Cellular proteome analysis by mass spectrometry in 293T cells; type: cell-based, human; conditions: 10 µM, 18 h, 28 proteins with highest SEQUEST scores
Protocol: To determine if 1H4 has a negative effect on protein expression profiles, we analyzed the global cellular proteome by mass spectrometry. Protein expression was analyzed in 293T cells untreated or treated with 1H4 as described in Materials and Methods. We detected expression of 1722 proteins in the untreated sample and 1739 proteins in the 1H4-treated sample (not shown).
Samples were separated by reversed-phase liquid chromatography (HPLC), using micro-capillary column C18, coupled in line with nanospray and tandem mass spectrometer Thermo LTQ Orbitrap XL. The LC gradient was run for 60 min from 2% to 30% of acetonitrile containing 0.1% formic acid at flow rate 400 nL/min. In single measurement block we performed 1 FT MS scan and 3 data dependent FT MS/MS scans on major multi-charged MS peaks with resolution 30000. The normalized collision-induced dissociation (CID) energy was 35%. The MS/MS spectra were compared against those in the NCBI human protein database. Proteins that were not present in the database, i.e. recombinant Flag-Tat, were manually added to the database. Only peptides having X-correlation (X corr) cutoffs of 1.9 for [M +2H]^2+, 2.3 for [M +3H]^3+ and higher charge state were considered. […]
As a negative control untreated cells were used. […] The MS-MS data were analyzed by SEQUEST.

[3] = biological target: T1, recombinant PP1α (Oryctolagus cuniculus, UniProt P62139); test: Malachite green dephosphorylation of RVxF-containing hybrid pRb peptides by PP1α; type: biochemical
T1 construct: purchased New England Biolabs, Ipswich, MA
T1 sequence (P62139 whole entry): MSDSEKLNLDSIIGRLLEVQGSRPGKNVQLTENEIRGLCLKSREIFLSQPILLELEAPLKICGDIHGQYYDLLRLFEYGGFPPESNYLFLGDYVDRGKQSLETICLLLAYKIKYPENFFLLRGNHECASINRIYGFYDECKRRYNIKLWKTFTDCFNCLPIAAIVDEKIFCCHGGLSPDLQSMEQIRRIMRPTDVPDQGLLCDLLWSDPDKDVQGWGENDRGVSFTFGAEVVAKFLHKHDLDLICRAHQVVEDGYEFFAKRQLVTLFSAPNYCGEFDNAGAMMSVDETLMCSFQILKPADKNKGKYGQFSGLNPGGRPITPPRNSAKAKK
From the text: Here, we analyzed the effect of 1H4 on the binding of the Tat RVxF sequence to PP1 using hybrid PP1 substrates containing a substrate phosphopeptide linked to RVxF-containing sequences derived from Tat or NIPP1. As the substrate phosphopeptide, we used a retinoblastoma protein-derived HIPR(pS)[…] peptide (pRb) that is efficiently dephosphorylated by PP1 but not by the enzymatically-related PP2A [13]. The pRb peptide was linked to an extended RVxF-containing sequence derived from Tat ([…]) (pRb-Tat peptide) or the central domain of NIPP1 ([…]). To visualize the interaction between pRb-Tat and PP1 we built a computational model of the pRb-Tat peptide with PP1 complex (described in Materials and Methods). Based on this model, the pRb-Tat peptide is able to bind to the RVxF- accommodating groove of PP1 and, at the same time, to reach the active site of PP1 without any tension (Fig. 5A, green spheres; Fig. 5B, gray sticks). The pRb-Tat peptide was efficiently dephosphorylated by PP1 in vitro (Fig. 5C, V0 = 0.31 µM·min^-1). […] Addition of 1H4 at 3-fold molar excess (480 µM) over pRb-Tat (160 µM) inhibited pRb-Tat dephosphorylation and reduced the rate of dephosphorylation (Fig. 5C, V0 = 0.19 µM·min^−1) to the rate of pRb-Tat QACA dephosphorylation (Fig. 5C, V0 = 0.17 µM⋅min^−1). […] To further investigate the effect of 1H4 on the dephosphorylation of the pRb-Tat peptide, we analyzed the initial velocity versus pRb-Tat peptide substrate concentration plots. […] This was expected because the dephosphorylation site and the RVxF-containing sequence were fused into one hybrid substrate and 1H4 interferes with the binding of this substrate to PP1.
Figure 5 1H4 compound competes with RVxF motif. A. Superimposition of pRb-Tat peptide on the complex of PP1 with Spinophilin. PP1 surface is colored after the atom types. The spinophilin peptide is shown as magenta ribbon and the pRb-Tat peptide as orange ribbon. The Val25 and Phe27 residues of pRb-Tat and the Ile449 and Phe 451 residues of Spinophilin are shown as sticks. The 2-(N-morpholino)-ethanesulfonic acid bound in the active site of PP1 is shown in green spheres. The phosphorylated Ser6 residue of pRb-Tat peptide is shown as sticks. B. Phosphorylated Ser 6 residue binds to the active site of PP1. Comparative superimposition of pRb-Tat peptide over the crystal structure of MES bound in the active site of PP1. Catalytic resides are shown as sticks. MES is shown as green sticks, and the phosphorylated Ser6 residue of pRb-Tat peptide is shown as orange sticks. The pRb-Tat peptide is shown as orange ribbon. C. 1H4 inhibits kinetics of pRb-Tat peptide dephosphorylation by PP1α. Recombinant PP1α was assayed with pRb-Tat (WT or QACA mutant, 120 µM) in the absence or presence of 1H4 as indicated. The reactions were stopped at indicated time points and the phosphate release was quantified by malachite green assay. Initial velocity was calculated by linear regression in Prism. D. 1H4 inhibits kinetics of pRb-cdNIPP dephosphorylation by PP1α. Recombinant PP1α was assayed with pRb-cdNIPP1 in the absence or presence of 1H4 as indicated. Mutant pRb cdNIPP1 pA-RATA was used as negative control. The reactions were stopped at indicated time points and the phosphate release was quantified by malachite green assay. Initial velocity was calculated by linear regression in Prism. […] Initial rates of pRb-Tat peptide dephosphorylation by PP1α were assayed at the indicated concentrations of the substrate in the absence or presence of 300 µM 1H4 or non-HIV-1 inhibitory 1G3. The amount of the released phosphate was quantified with malachite green.
Malachite green dephosphorylation assays were carried out with the Ser/Thr phosphatase assay kit (Upstate, Lake Placid, NY) using recombinant PP1α (New England Biolabs, Ipswich, MA). […]

[4] = tested on: HIV-1 transcription in CEM-GFP cells; test: cells; type: cell-based
[5] = Trypan blue exclusion viability assay in CEM cells; type: cell-based; conditions: human, read-out: Cytotoxicity IC50 in CEM cells by trypan blue exclusion

Structure (SMILES): COCCNC(=O)COC(=O)c1c2c(nc3ccccc13)/C(=C/c1ccc(O)cc1)CCC2 [1H4]
- Concentration from which HIV-1 replication is inhibited [1]: ≥ 10 µM
- Effect on cellular proteome [2]: did not significantly change the cellular proteome
- Effect on and mode of inhibition of pRb-Tat dephosphorylation by PP1α ([3]; 300 µM compound, Lineweaver-Burk plot): competitive
- pRB-Tat VMAX ([3]; 300 µM compound, control 16.67, 25% of substrate assumed phosphorylated): 18.20
- V0 of pRb-cdNIPP1 dephosphorylation by PP1α in presence of compound ([3]; 1H4 added): 0.37 µM·min^-1 and 0.37 ± 0.01 µM·min^-1
- V0 of pRb-Tat dephosphorylation by PP1α in presence of compound ([3]; 1H4 at 3-fold molar excess (480 µM) over pRb-Tat (160 µM)): 0.19 µM·min^-1 and 0.19 ± 0.01 µM·min^-1
- Percent of inhibition of HIV-1 transcription in CEM GFP cells infected with Ad-Tat ([4]; 25 µM of each compound, 48 hours): 96%
- IC50 ([4]; Human immunodeficiency virus 1, CEM-GFP, 24 h, read-out: Inhibition of HIV-1 Transcription in CEM-GFP cells (IC50, μM)): 10 µM
- IC50 at 24 h [5]: > 100 µM
